{"source": "patent US20120015901A1", "about": "“METHODS AND PREPARATIONS FOR PROTECTING CRITICALLY ILL PATIENTS” (priority 2009, published 2012)", "key": {"[1]": {"tested_on": "parentally fed, hyperglycemic, burn-injured rabbits", "source_text": "Our research group previously developed an animal model of critical illness that has shown to mimic the dynamic endocrine, immunological and metabolic changes characteristic of human critical illness. In this animal model we investigated the effect of critical illness on spermidine levels and the effects of spermidine-administration during critical illness on survival, organ function (clinical, biochemical, and cyto/histopathological effects), and on metabolic, inflammatory/immunological and cellular pathways. Animals were treated according to the “Principals of Laboratory Animal Care” formulated by the U.S. National Society for Medical Research and the “Guide for the Care and Use of Laboratory Animals” prepared by the National Institutes of Health. The protocol was approved by the K.U. Leuven Ethical Review Board for Animal Research. Adult male New Zealand White rabbits, weighing approximately 3 kg, were purchased from a local rabbitry, were housed individually with free access to water, hay and regular rabbit chow, and were exposed to artificial light for 14 h per day. This animal model of prolonged critical illness mimics the human condition (Weekers et al. (2003) Endocrinol 144, 5329-5338). Indeed, the critically ill animals undergo the same metabolic, immunological and endocrine disturbances and development of organ failure and muscle wasting as the human counterpart.\nIn our animal model, critical illness was induced by placing intravascular catheters, selectively destroying pancreatic β-cells by alloxan, followed by burn injury. […] The administration of alloxan was necessary to control both blood glucose and plasma insulin levels independently. The application of the burn wound is done 48 hours after alloxan-injection, at which time alloxan has done irreversible damage to the β-cells (selective β-cell necrosis, phase 4 after alloxan-injection). After imposing a burn wound, animals were brought to […], because this reflects most the human situation of critical illness. Non-injured, healthy rabbits served as control.\nThe effects of spermidine administration were investigated in parentally fed, hyperglycemic, burn-injured rabbits. The rabbits were purchased from a local rabbitry and weighed approximately 3-3.5 kg. The burn injury experiments were performed analoguous to those described above. After imposing the burn wound, animals received a continuous infusion of saline or spermidine (low dose ranging from 0.3-3 mg/day or high dose ranging from 30-300 mg/day).\nAt 09:00±1 h of […] (FIG. 3) animals were weighed, and under general anesthesia (30 mg/kg ketamine i.m. [Imalgene 1000; Merial, Lyon, France]; 0.15 ml/kg medetomidine i.m. [Orion, Espoo, Finland]), an ice-cold 10% solution of alloxan-monohydrate (150 mg/kg; Alloxan; Sigma-Aldrich, Bornem, Belgium) was injected slowly via a marginal ear vein. Afterward, the animals had free access to regular rabbit chow, hay and drinking water enriched with glucose to face alloxan-induced acute hypoglycemia.\nAt 10:00±1 h of Day 0 (FIG. 3), glycemia was measured to confirm hyperglycemia after alloxan (irreversible phase 4 after alloxan-injection). When glycemia exceeded 300 mg/dl, animals were considered eligible for the study. Under general anesthesia (see above), supplemented with 1.5 volume % isoflurane (Isoba Vet.; Schering-Plough, Brussels, Belgium) inhalation, animals were shaved and catheters were placed into the right jugular vein for intravenous infusion (4F; Vygon, Ecouen, France) and into the right carotid artery for blood sampling (5 Ch; Sherwood Medical, Tullamore, Ireland). A paravertebral block (5 ml Xylocaine 1%; Astra Zeneca, Brussels, Belgium) was performed and a full thickness burn injury of 20% body-surface area was imposed. Animals were then fitted to a homemade jacket to secure catheters and immediately returned to their cages."}, "[2]": {"tested_on": "general HAT activity in extracts of mammalian nuclei", "test": "HAT activity assay, nuclear extract of HeLa-cells", "type": "biochemical", "settings": "extracts of mammalian nuclei (data not shown); spermidine 100 mM", "procedure": "For HAT-activity determination the commercially available HAT Activity Colorimetric Assay KIT from BioVision (Bio Vision K332-100) was employed. HAT assays were performed according to the manufacturer's protocol. In brief, assays were performed with each 15 μg of yeast nuclear extract or nuclear extract of HeLa-cells (Bio Vision K332-100-4), respectively. Spermidine was added at a final concentration of 100 mM 15 minutes after assay initiation. Development of tetrazolium dye was measured by absorption at 440 nm using a GeniosPro plate reader (Tecan). Background readings were done with samples without NADH generating enzyme, giving the nuclear extracts unspecific background activity and eliminate any possible negative effects of spermidine addition on the assay itself. […] Regression coefficients of R^2>0.99 were obtained. Calculated slopes of spermidine treated samples were compared to slopes of untreated samples which were set to a relative activity of 100%."}, "[3]": {"tested_on": "autophagy", "test": "Yeast autophagy measurements", "type": "cell-based", "source_text": "Autophagy was monitored either by vacuolar localization of Atg8p using fluorescence microscopy of cells expressing an EGFP-Atg8 fusion protein (T. Kirisako et al. (1999) J Cell Biol 147, 435-446.) or by alkaline phosphatase (ALP) activity according to Kissova et al. (Kissova at al. (2004) J Biol Chem 279, 39068-39074) using BY4741 wild type strain transformed with and selected for stable insertion of pTN9 HindIII fragment (confirmed by PCR). In order to correct for intrinsic (background) ALP activity, BY4741 (without pTN9) have been simultaneously processed and ALP activity subtracted. For generation of EGFP-ATG8 constructs see section on Molecular Biology."}, "[4]": {"tested_on": "critically ill rabbits", "test": "Proof-of-concept outcome study, interim analysis (15 animals per group)"}, "[5]": {"settings": "preliminary results, spermidine versus saline"}}, "note": "“Also recorded” adds a separate entry of the source. Read-outs that look alike come from different tables or passages of the source.", "data": [{"smiles": "NCCCCNCCCN", "note": "[spermidine]", "values": [{"measurement": "mortality", "setting": "[1]; 0.3 to 3 mg spermidine per day (groups D, E; 2 groups of 7 animals)", "result": 28, "unit": "%"}, {"measurement": "mortality", "setting": "[1]; 30 to 300 mg spermidine per day (groups A, B, C; 3 groups of 8 animals)", "result": 12.5, "unit": "%"}, {"measurement": "plasma and tissue levels of spermidine", "setting": "[1]; already seen with doses of 1-200 mg spermidine per kg per day", "result": "could restore both plasma and tissue levels of spermidine"}, {"measurement": "survival rate", "setting": "[1]; benefit most pronounced for the higher doses", "result": "marked improved survival rate"}, {"measurement": "AST levels (marker of liver dysfunction)", "setting": "[1]; days following the initial hit", "result": "rapid and profound decrease in AST-levels"}, {"measurement": "rise in plasma creatinine (marker of kidney function)", "setting": "[1]; high dose 30-300 mg/day, low dose 0.3-3 mg/day", "result": "could be prevented"}, {"measurement": "plasma spermidine concentration", "setting": "[1]; higher doses 30-300 mg/day", "result": "maintained or increased the plasma spermidine to (supra)normal values"}, {"measurement": "mortality of the animals (in words)", "setting": "[1]; higher doses 30-300 mg/day/rabbit", "result": "reduce the mortality"}, {"measurement": "plasma spermidine concentration", "setting": "[1]; low doses 0.3-3 mg/day", "result": "minimal or no effect"}, {"measurement": "mortality of the animals (in words)", "setting": "[1]; low doses 0.3-3 mg/day/rabbit", "result": "reduce the mortality"}, {"measurement": "kidney protection", "setting": "[1]; low doses of spermidine", "result": "renoprotection"}, {"measurement": "autophagy (key proteins)", "setting": "[1]; [5]", "result": "stimulation of autophagy"}, {"measurement": "mitochondrial function", "setting": "[1]; [5]", "result": "improvement of mitochondrial function"}, {"measurement": "rise in ureum (marker of kidney dysfunction and muscle wasting)", "setting": "[1]; spermidine infusion", "result": "could also be prevented"}, {"measurement": "blood pH and lactate levels during illness", "setting": "[1]; spermidine infusion versus saline", "result": "maintain a normal pH and normal lactate levels"}, {"measurement": "general HAT activity", "setting": "[2]", "result": "efficiently inhibited"}, {"measurement": "autophagy", "setting": "[3]", "result": "strongly induces autophagy"}, {"measurement": "mortality", "setting": "[4]; 7 days after injury, 30 and 100 mg/day, both doses equal, placebo >50%", "result": "about one third; also recorded: much lower"}, {"measurement": "rise in renal p62 levels (autophagic flux marker)", "setting": "[4]; kidney, compared to saline-treated animals", "result": "attenuated"}, {"measurement": "plasma spermidine concentration", "setting": "[4]; spermidine 30 mg/d or 100 mg/d", "result": "maintain or increase the plasma spermidine concentration to similar (supra)physiological levels"}, {"measurement": "number of animals that developed a more than 3-fold rise in normal urea levels", "setting": "[4]; spermidine-treated animals, saline 18.8%, P 0.0461", "result": 2.8, "unit": "%"}, {"measurement": "number of animals that developed a more than 3-fold rise in normal creatinine levels", "setting": "[4]; spermidine-treated animals, saline 25%, P 0.0161", "result": 2.8, "unit": "%"}]}]}
